Source: publication PMC10945555, “Improving Activity of New Arylurea Agents against Multidrug-Resistant and Biofilm-Producing Staphylococcus epidermidis” (ACS Medicinal Chemistry Letters, 2024)
≈ marks a conversion by molar mass, not a printed value.

Legend:
Format in all cases: cell-based
H9c2 cells = test: Cytotoxicity, MTT assay, cardiomyocytes; conditions: Rattus norvegicus, 24 h, n = 3
Procedure: The following cell models were used in the research: rat cardiomyocytes (H9c2 line) and human skin fibroblasts (BJ line). All cell lines used in the work are commercially available and were purchased from ATCC banks (the American Type Culture Collection, Manassas, VI, USA). Cell cultures were carried out in an incubator under standard conditions (37°C, 5% CO 2).
Culture media (Dulbecco's Modified Eagle's Medium -DMEM (H9c2) and Eagle's Minimum Essential Medium-EMEM (BJ) were supplemented with 10% bovine serum and a 1% mixture of penicillin and streptomycin antibiotics. […]
doxorubicin (a cytotoxic drug) were used as reference and positive control, respectively. […]
incubated with studied compound in appropriate concentration for next 24 h. Then MTT solution (5 mg/mL) was transferred into culture medium of incubated cells. After 3 h, once dark crystals of formazan were produced in cells, medium was aspirated and 100 μ L of DMSO was added to dissolve formazan. Absorbance of DMSO solution was read on a multiwell plate reader (Spectra Max iD3, Molecular Devices) at 570 nm. In order to determine viability, absorbance of experimental wells was divided by absorbance of contro l well (not treated) and multiplied by 100 (%). Three separate experiments were performed. IC 50 was calculated using non-linear regression method in OriginPro software. […]

[1] = system: biofilm-producing Staphylococcus epidermidis strains; test: Biofilm eradication (MBEC Assay Kit)
[2] = system: biofilm-producing Staphylococcus epidermidis strains; test: Inhibition of biofilm formation (MBIC, resazurin)
Procedure: After 24 hours incubation each well of
concentration of 4 mg/mL was added. […]

[3] = S. epidermidis ATCC 35984 (Table S4)

## CC(=O)NC[C@H]1CN(c2ccc(N3CCOCC3)c(F)c2)C(=O)O1 [linezolid, reference compound]
H9c2 cells
  IC50: 16.9 µg/mL (≈ 50.1 µM)
[1]; [3]
  MBEC: 15.6 µg/mL
[1]; Table S4 strains
  MBEC50: 50 µg/mL
  MBEC90: 50 µg/mL
[1]; clinical strain 1 (Table S4)
  MBEC: 31.25 µg/mL
[1]; clinical strain 2 (Table S4)
  MBEC: 50 µg/mL
[1]; clinical strain 3 (Table S4)
  MBEC: 50 µg/mL
[1]; clinical strain 4 (Table S4)
  MBEC: 50 µg/mL
[1]; clinical strain 5 (Table S4)
  MBEC: 50 µg/mL
[1]; clinical strain 6 (Table S4)
  MBEC: 31.25 µg/mL
[1]; clinical strain 7 (Table S4)
  MBEC: 50 µg/mL
[1]; clinical strain 8 (Table S4)
  MBEC: 15.6 µg/mL
[1]; clinical strain 9 (Table S4)
  MBEC: 50 µg/mL
[1]; clinical strain 11 (Table S4)
  MBEC: 50 µg/mL
[1]; clinical strain 12 (Table S4)
  MBEC: 50 µg/mL
[1]; clinical strain 13 (Table S4)
  MBEC: 7.8 µg/mL
[1]; clinical strain 15 (Table S4)
  MBEC: 50 µg/mL
[1]; clinical strain 16 (Table S4)
  MBEC: 50 µg/mL
[1]; clinical strain 17 (Table S4)
  MBEC: 31.25 µg/mL
[1]; clinical strain 19 (Table S4)
  MBEC: 31.25 µg/mL
[1]; clinical strain 21 (Table S4)
  MBEC: 50 µg/mL
[1]; clinical strain 22 (Table S4)
  MBEC: 50 µg/mL
[1]; clinical strain 23 (Table S4)
  MBEC: 15.6 µg/mL
[1]; clinical strain 25 (Table S4)
  MBEC: 15.6 µg/mL
[1]; clinical strain 26 (Table S4)
  MBEC: 50 µg/mL
[1]; clinical strain 27 (Table S4)
  MBEC: 50 µg/mL
[1]; clinical strain 28 (Table S4)
  MBEC: 50 µg/mL
[1]; clinical strain 29 (Table S4)
  MBEC: 50 µg/mL
[1]; clinical strain 30 (Table S4)
  MBEC: 7.8 µg/mL
[1]; clinical strain 33 (Table S4)
  MBEC: 50 µg/mL
[1]; clinical strain 35 (Table S4)
  MBEC: 50 µg/mL
[1]; clinical strain 36 (Table S4)
  MBEC: 50 µg/mL
[1]; clinical strain 37 (Table S4)
  MBEC: 50 µg/mL
[1]; clinical strain 39 (Table S4)
  MBEC: 7.8 µg/mL
[1]; clinical strain 40 (Table S4)
  MBEC: 50 µg/mL
[1]; clinical strain 41 (Table S4)
  MBEC: 50 µg/mL
[1]; clinical strain 42 (Table S4)
  MBEC: 50 µg/mL
[1]; clinical strain 43 (Table S4)
  MBEC: 50 µg/mL
[1]; clinical strain 44 (Table S4)
  MBEC: 25 µg/mL
[1]; clinical strain 45 (Table S4)
  MBEC: 50 µg/mL
[1]; clinical strain 46 (Table S4)
  MBEC: 50 µg/mL
[1]; clinical strain 47 (Table S4)
  MBEC: 25 µg/mL
[1]; clinical strain 49 (Table S4)
  MBEC: 25 µg/mL
[1]; clinical strain 51 (Table S4)
  MBEC: 50 µg/mL
[1]; clinical strain 55 (Table S4)
  MBEC: 50 µg/mL
[1]; clinical strain 58 (Table S4)
  MBEC: 50 µg/mL
[1]; clinical strain 59 (Table S4)
  MBEC: 50 µg/mL
[1]; clinical strain 65 (Table S4)
  MBEC: 50 µg/mL
[1]; clinical strain 66 (Table S4)
  MBEC: 25 µg/mL
[1]; clinical strain 67 (Table S4)
  MBEC: 50 µg/mL
[1]; clinical strain 70 (Table S4)
  MBEC: 50 µg/mL
[1]; clinical strain 73 (Table S4)
  MBEC: 15.6 µg/mL
[1]; clinical strain 74 (Table S4)
  MBEC: 25 µg/mL
[1]; clinical strain 75 (Table S4)
  MBEC: 50 µg/mL
[1]; clinical strain 78 (Table S4)
  MBEC: 15.6 µg/mL
[1]; clinical strain 79 (Table S4)
  MBEC: 15.6 µg/mL
[2]; [3]
  MBIC: 15.6 µg/mL
[2]; Table S4 strains
  MBIC50: 25 µg/mL
  MBIC90: 50 µg/mL
[2]; clinical strain 1 (Table S4)
  MBIC: 15.6 µg/mL
[2]; clinical strain 2 (Table S4)
  MBIC: 50 µg/mL
[2]; clinical strain 3 (Table S4)
  MBIC: 50 µg/mL
[2]; clinical strain 4 (Table S4)
  MBIC: 50 µg/mL
[2]; clinical strain 5 (Table S4)
  MBIC: 15.6 µg/mL
[2]; clinical strain 6 (Table S4)
  MBIC: 15.6 µg/mL
[2]; clinical strain 7 (Table S4)
  MBIC: 50 µg/mL
[2]; clinical strain 8 (Table S4)
  MBIC: 12.5 µg/mL
[2]; clinical strain 9 (Table S4)
  MBIC: 50 µg/mL
[2]; clinical strain 11 (Table S4)
  MBIC: 50 µg/mL
[2]; clinical strain 12 (Table S4)
  MBIC: 50 µg/mL
[2]; clinical strain 13 (Table S4)
  MBIC: 6.25 µg/mL
[2]; clinical strain 15 (Table S4)
  MBIC: 50 µg/mL
[2]; clinical strain 16 (Table S4)
  MBIC: 15.6 µg/mL
[2]; clinical strain 17 (Table S4)
  MBIC: 25 µg/mL
[2]; clinical strain 19 (Table S4)
  MBIC: 25 µg/mL
[2]; clinical strain 21 (Table S4)
  MBIC: 50 µg/mL
[2]; clinical strain 22 (Table S4)
  MBIC: 50 µg/mL
[2]; clinical strain 23 (Table S4)
  MBIC: 12.5 µg/mL
[2]; clinical strain 25 (Table S4, Figure 2)
  MBIC: 12.5 µg/mL
[2]; clinical strain 26 (Table S4)
  MBIC: 50 µg/mL
[2]; clinical strain 27 (Table S4)
  MBIC: 50 µg/mL
[2]; clinical strain 28 (Table S4)
  MBIC: 25 µg/mL
[2]; clinical strain 29 (Table S4)
  MBIC: 25 µg/mL
[2]; clinical strain 30 (Table S4)
  MBIC: 6.25 µg/mL
[2]; clinical strain 33 (Table S4)
  MBIC: 50 µg/mL
[2]; clinical strain 35 (Table S4)
  MBIC: 50 µg/mL
[2]; clinical strain 36 (Table S4)
  MBIC: 25 µg/mL
[2]; clinical strain 37 (Table S4)
  MBIC: 50 µg/mL
[2]; clinical strain 39 (Table S4)
  MBIC: 6.25 µg/mL
[2]; clinical strain 40 (Table S4)
  MBIC: 25 µg/mL
[2]; clinical strain 41 (Table S4)
  MBIC: 50 µg/mL
[2]; clinical strain 42 (Table S4)
  MBIC: 50 µg/mL
[2]; clinical strain 43 (Table S4)
  MBIC: 25 µg/mL
[2]; clinical strain 44 (Table S4)
  MBIC: 25 µg/mL
[2]; clinical strain 45 (Table S4)
  MBIC: 50 µg/mL
[2]; clinical strain 46 (Table S4)
  MBIC: 50 µg/mL
[2]; clinical strain 47 (Table S4)
  MBIC: 25 µg/mL
[2]; clinical strain 49 (Table S4)
  MBIC: 25 µg/mL
[2]; clinical strain 51 (Table S4)
  MBIC: 50 µg/mL
[2]; clinical strain 55 (Table S4)
  MBIC: 50 µg/mL
[2]; clinical strain 58 (Table S4)
  MBIC: 50 µg/mL
[2]; clinical strain 59 (Table S4)
  MBIC: 50 µg/mL
[2]; clinical strain 65 (Table S4)
  MBIC: 50 µg/mL
[2]; clinical strain 66 (Table S4)
  MBIC: 25 µg/mL
[2]; clinical strain 67 (Table S4)
  MBIC: 50 µg/mL
[2]; clinical strain 70 (Table S4)
  MBIC: 50 µg/mL
[2]; clinical strain 73 (Table S4)
  MBIC: 15.6 µg/mL
[2]; clinical strain 74 (Table S4)
  MBIC: 25 µg/mL
[2]; clinical strain 75 (Table S4)
  MBIC: 25 µg/mL
[2]; clinical strain 78 (Table S4)
  MBIC: 15.6 µg/mL
[2]; clinical strain 79 (Table S4)
  MBIC: 15.6 µg/mL
